From patent publication US7875587B2, “Peptide analogues of GIP for treatment of diabetes, insulin resistance and obesity” (UUTECH Limited, priority 2004, dated 2011) come the findings set out here.

The test system of one series is BRIN-BD11 cells. In words: Acute tests for insulin secretion from BRIN-BD11 cells. It counts as cell-based. Conditions: 5.6 and 16.7 mM glucose, 10^-13 to 10^-8 M peptide. As to the method: Culture of insulin secreting cells. BRIN-BD11 cells were cultured in sterile tissue culture flasks (Corning, Glass Works, UK) using RPMI-1640 tissue culture medium containing 10% (v/v) foetal calf serum, 1% (v/v) antibiotics (100 U/ml penicillin, 0.1 mg/ml streptomycin) and 11.1 mM glucose. The cells were maintained at 37° C. in an atmosphere of 5% CO2 and 95% air using a LEEC incubator (Laboratory Technical Engineering, Nottingham, UK).
Acute tests for insulin secretion. Before experimentation, the cells were harvested from the surface of the tissue culture flasks with the aid of trypsin/EDTA (Gibco), seeded into 24-multiwell plates (Nunc, Roskilde, Denmark) at a density of 1.5×10^5 cells per well, and allowed to attach overnight at 37° C. Acute tests for insulin release were preceded by 40 minutes pre-incubation at 37° C. in 1.0 ml Krebs Ringer bicarbonate buffer (115 mM NaCl, 4.7 mM KCl, 1.28 mM CaCl2, 1.2 mM KH2PO4, 1.2 mM MgSO4, 10 mM NaHCO3, 5 g/l bovine serum albumin, pH 7.4) supplemented with 1.1 mM glucose. Test incubations were performed (n=12) at two glucose concentrations (5.6 mM and 16.7 mM) with a range of concentrations (10^−13 to 10^−8 M) of GIP or GIP analogues. After 20 minutes incubation, the buffer was removed from each well and aliquots (200 μl) were used for measurement of insulin by radioimmunoassay.

The nature of series [1]: Degradation of GIP and analogues by human plasma (HPLC). It counts as in vitro ADME. To be noted: for % Intact peptide remaining after incubations with human plasma: 0 h; for effect of DPA on plasma degradation of the peptide: 24 hours in the presence of DPA; for remaining at 2 h, 20 µg/ml / remaining at 4 h, 20 µg/ml / remaining at 8 h, 20 µg/ml / remaining at 24 h, 20 µg/ml: human, plasma, read-out: % Intact peptide remaining after incubations with human plasma; for remaining at 2 h, 20 µg/ml: pH 7.8, 2 h; for remaining at 4 h, 20 µg/ml: pH 7.8, 4 h; for remaining at 8 h, 20 µg/ml: pH 7.8, 8 h. As to the method: Degradation of GIP and Tyr^1-glucitol GIP by human plasma. […] […] The reactions were terminated by addition of 5 μl of TFA and the final volume adjusted to 1.0 ml using 0.1% v/v TFA/water. Samples were centrifuged (13,000 g, 5 minutes) and the supernatant applied to a C-18 Sep-Pak cartridge (Millipore-Waters) which was previously primed and washed with 0.1% (v/v) TFA/water. […] The volume was adjusted to 1.0 ml with 0.12% (v/v) TFA/water prior to HPLC purification.
(§1) HPLC analysis of degraded GIP and Tyr^1-glucitol GIP. […] Using 0.1% (v/v) TFA in 70% acetonitrile/H20, the concentration of acetonitrile in the eluting solvent was raised from 0% to 31.5% over 15 min, to 38.5% over 30 minutes and from 38.5% to 70% over 5 minutes, using linear gradients. The absorbance was monitored at 206 nm and peak areas evaluated using a model 2221 LKB integrator. Samples recovered manually were concentrated using a Speed-Vac concentrator.
(§2) Electrospray ionization-mass spectrometry (ESI-MS) was carried out as described in Example 2. Degradation of GIP and novel GIP analogues by DPP IV and human plasma was carried out as described in Example 2.

The target in another series is T1, DPP IV (Sus scrofa, UniProt P22411).
T1 construct: purchased Sigma (Poole, Dorset, UK)
T1 sequence (P22411 whole entry): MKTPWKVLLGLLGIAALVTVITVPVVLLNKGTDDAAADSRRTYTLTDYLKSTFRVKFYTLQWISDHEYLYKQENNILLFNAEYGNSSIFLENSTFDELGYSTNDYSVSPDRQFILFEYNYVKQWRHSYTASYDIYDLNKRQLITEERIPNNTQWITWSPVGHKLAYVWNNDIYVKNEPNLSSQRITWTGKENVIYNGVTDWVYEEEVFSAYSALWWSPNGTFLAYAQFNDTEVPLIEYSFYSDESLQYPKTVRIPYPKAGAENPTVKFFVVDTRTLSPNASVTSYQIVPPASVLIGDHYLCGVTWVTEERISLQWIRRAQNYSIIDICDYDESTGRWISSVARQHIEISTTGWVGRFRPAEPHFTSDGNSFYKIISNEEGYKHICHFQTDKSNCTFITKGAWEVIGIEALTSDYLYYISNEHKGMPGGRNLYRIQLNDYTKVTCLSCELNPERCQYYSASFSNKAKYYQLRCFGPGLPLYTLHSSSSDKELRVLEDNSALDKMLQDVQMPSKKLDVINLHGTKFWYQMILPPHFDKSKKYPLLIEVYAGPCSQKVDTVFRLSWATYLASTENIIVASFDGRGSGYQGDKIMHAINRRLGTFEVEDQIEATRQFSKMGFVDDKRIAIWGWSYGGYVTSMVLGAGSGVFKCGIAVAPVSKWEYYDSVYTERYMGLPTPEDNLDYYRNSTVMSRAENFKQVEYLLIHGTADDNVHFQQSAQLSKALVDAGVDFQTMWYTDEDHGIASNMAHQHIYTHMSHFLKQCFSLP
In words: Degradation of GIP and analogues by DPP IV (HPLC). Conditions: for resistance to in vitro degradation with DPP IV relative to native GIP: Example 3, summary of Table 1; for % Intact peptide remaining after time (h) / remaining at 2 h, 1 mmol/l / remaining at 4 h, 1 mmol/l / remaining at 8 h, 1 mmol/l / remaining at 24 h, 1 mmol/l: incubation with DPP IV; for % Intact peptide remaining after time (h): 0 h; for remaining at 2 h, 1 mmol/l / remaining at 4 h, 1 mmol/l / remaining at 8 h, 1 mmol/l / remaining at 24 h, 1 mmol/l: isolated enzyme dpp iv, pH 7.8, read-out: % Intact peptide remaining after time (h). It counts as in vitro ADME. As to the method: Degradation of GIP and Tyr^1-glucitol GIP by DPP IV. HPLC-purified GIP or Tyr^1-glucitol GIP were incubated at 37° C. with DPP-IV (5 mU) for various time periods in a reaction mixture made up to 500 μl with 50 mmol/l triethanolamine-HCl, pH 7.8 (final peptide concentration 1 mmol/l). Enzymatic reactions were terminated after 0, 2, 4 and 12 hours by addition of 5 μl of 10% (v/v) TFA/water. Samples were made up to a final volume of 1.0 ml with 0.12% (v/v) TFA and stored at −20° C. prior to HPLC analysis.
as §1, §2

Where [2] appears, read: pH 7.8, 24 hours in the presence of DPA (diprotin A).

Read-outs that look alike come from different tables or passages of the source. No end group written: not given here.

A word on the amount remaining: it is the share of the starting amount still present when the sample was taken.

As for `CC[C@H](NC(=O)[C@@H](N)Cc1ccc(O)cc1)C(=O)N[C@@H](CCC(=O)O)C(=O)NCC(=O)N[C@H](C(=O)N[C@@H](Cc1ccccc1)C(=O)N[C@H](C(=O)N[C@@H](CO)C(=O)N[C@@H](CC(=O)O)C(=O)N[C@@H](Cc1ccc(O)cc1)C(=O)N[C@@H](CO)C(=O)N[C@H](C(=O)N[C@@H](C)C(=O)N[C@@H](CCSC)C(=O)N[C@@H](CC(=O)O)C(=O)N[C@@H](CCCCN)C(=O)N[C@H](C(=O)N[C@@H](Cc1c[nH]cn1)C(=O)N[C@@H](CCC(N)=O)C(=O)N[C@@H](CCC(N)=O)C(=O)N[C@@H](CC(=O)O)C(=O)N[C@@H](Cc1ccccc1)C(=O)N[C@H](C(=O)N[C@@H](CC(N)=O)C(=O)N[C@@H](Cc1c[nH]c2ccccc12)C(=O)N[C@@H](CC(C)C)C(=O)N[C@@H](CC(C)C)C(=O)N[C@@H](C)C(=O)N[C@@H](CCC(N)=O)C(=O)N[C@@H](CCCCN)C(=O)NCC(=O)N[C@@H](CCCCN)C(=O)N[C@@H](CCCCN)C(=O)N[C@@H](CC(N)=O)C(=O)N[C@@H](CC(=O)O)C(=O)N[C@@H](Cc1c[nH]c2ccccc12)C(=O)N[C@@H](CCCCN)C(=O)N[C@@H](Cc1c[nH]cn1)C(=O)N[C@@H](CC(N)=O)C(=O)N[C@H](C(=O)N[C@H](C(=O)N[C@@H](CCC(N)=O)C(=O)O)[C@@H](C)O)[C@@H](C)CC)C(C)C)[C@@H](C)CC)[C@@H](C)CC)[C@@H](C)CC)[C@@H](C)O` [GIP (Abu^2)], the “insulin secretion from BRIN-BD11 cells” value in the series with BRIN-BD11 cells is “complex pattern of responsiveness dependent on glucose concentration and dose employed”. Besides, in series [1], the “% Intact peptide remaining after incubations with human plasma” value amounted to 100%; the “effect of DPA on plasma degradation of the peptide” value is “complete abolition of degradation”; the amount remaining at 2 h, 20 µg/ml was 38 ± 1%; the amount remaining at 4 h, 20 µg/ml was found to be 28 ± 2%. Besides, in series [1], the amount remaining at 8 h, 20 µg/ml is 0%. Also, the fraction remaining at 24 h, 20 µg/ml in series [1] (pH 7.8, 24 h) was determined as 0%. Further, in series [1] (setting [2]), the share remaining at 24 h, 20 µg/ml was found to be 100%. At DPP IV, the “resistance to in vitro degradation with DPP IV relative to native GIP” value (“resistance … with DPP IV relative to native GIP” below) was “more resistant than native GIP”; the “% Intact peptide remaining after time (h)” value was 100%; the fraction remaining at 2 h, 1 mmol/l was 38 ± 1%; the amount remaining at 4 h, 1 mmol/l amounted to 28 ± 2%. Besides, on DPP IV, the amount remaining at 8 h, 1 mmol/l stood at 0% and the share remaining at 24 h, 1 mmol/l amounted to 0%.

For `CC[C@H](C)[C@H](NC(=O)[C@H](CO)NC(=O)[C@H](Cc1ccc(O)cc1)NC(=O)[C@H](CC(=O)O)NC(=O)[C@H](CO)NC(=O)[C@@H](NC(=O)[C@H](Cc1ccccc1)NC(=O)[C@@H](NC(=O)CNC(=O)[C@H](CCC(=O)O)NC(=O)CN(C)C(=O)[C@@H](N)Cc1ccc(O)cc1)[C@@H](C)O)[C@@H](C)CC)C(=O)N[C@@H](C)C(=O)N[C@@H](CCSC)C(=O)N[C@@H](CC(=O)O)C(=O)N[C@@H](CCCCN)C(=O)N[C@H](C(=O)N[C@@H](Cc1c[nH]cn1)C(=O)N[C@@H](CCC(N)=O)C(=O)N[C@@H](CCC(N)=O)C(=O)N[C@@H](CC(=O)O)C(=O)N[C@@H](Cc1ccccc1)C(=O)N[C@H](C(=O)N[C@@H](CC(N)=O)C(=O)N[C@@H](Cc1c[nH]c2ccccc12)C(=O)N[C@@H](CC(C)C)C(=O)N[C@@H](CC(C)C)C(=O)N[C@@H](C)C(=O)N[C@@H](CCC(N)=O)C(=O)N[C@@H](CCCCN)C(=O)NCC(=O)N[C@@H](CCCCN)C(=O)N[C@@H](CCCCN)C(=O)N[C@@H](CC(N)=O)C(=O)N[C@@H](CC(=O)O)C(=O)N[C@@H](Cc1c[nH]c2ccccc12)C(=O)N[C@@H](CCCCN)C(=O)N[C@@H](Cc1c[nH]cn1)C(=O)N[C@@H](CC(N)=O)C(=O)N[C@H](C(=O)N[C@H](C(=O)N[C@@H](CCC(N)=O)C(=O)O)[C@@H](C)O)[C@@H](C)CC)C(C)C)[C@@H](C)CC` [GIP (Sar^2)], the “insulin secretion from BRIN-BD11 cells” value in the series with BRIN-BD11 cells was “complex pattern of responsiveness dependent on glucose concentration and dose employed”. Also, in series [1], the “% Intact peptide remaining after incubations with human plasma” value is listed as 100%; the amount remaining at 2 h, 20 µg/ml was 28 ± 2%; the share remaining at 4 h, 20 µg/ml was found to be 8%; the share remaining at 8 h, 20 µg/ml came out at 0%. The “plasma degradation” value in series [1] (Example 3, summary of Table 2) is “resistance to plasma degradation”. Moreover, the amount remaining at 24 h, 20 µg/ml in series [1] (pH 7.8, 24 h) was 0%. In addition, in series [1] (setting [2]), the share remaining at 24 h, 20 µg/ml came out at 100%. Besides, on DPP IV, the “resistance … with DPP IV relative to native GIP” value is reported as “less resistant”; the “% Intact peptide remaining after time (h)” value is listed as 100%; the amount remaining at 2 h, 1 mmol/l turned out to be 28 ± 2%; the amount remaining at 4 h, 1 mmol/l turned out to be 8%. Moreover, on DPP IV, the amount remaining at 8 h, 1 mmol/l amounted to 0% and the share remaining at 24 h, 1 mmol/l amounted to 0%.

Regarding “YSEGTFISDYSIAMDKIHQQDFVNWLLAQKGKKNDWKHNITQ-OH [GIP (Ser^2)]”, the “insulin secretion from BRIN-BD11 cells” value in the series with BRIN-BD11 cells is recorded as “strong response”. In series [1], the “% Intact peptide remaining after incubations with human plasma” value was found to be 100%; the “effect of DPA on plasma degradation of the peptide” value is listed as “complete abolition of degradation”; the share remaining at 2 h, 20 µg/ml was 77 ± 2%; the share remaining at 4 h, 20 µg/ml stood at 60 ± 1%. Further, in series [1], the fraction remaining at 8 h, 20 µg/ml turned out to be 32 ± 4%. Besides, in series [1] (pH 7.8, 24 h), the amount remaining at 24 h, 20 µg/ml turned out to be 0%. The fraction remaining at 24 h, 20 µg/ml in series [1] (setting [2]) worked out at 63 ± 3%. Moreover, on DPP IV, the “resistance … with DPP IV relative to native GIP” value is “more resistant than native GIP”; the “% Intact peptide remaining after time (h)” value is 100%; the amount remaining at 2 h, 1 mmol/l is 77 ± 2%; the fraction remaining at 4 h, 1 mmol/l was 60 ± 1%. At DPP IV, the amount remaining at 8 h, 1 mmol/l was determined as 32 ± 4% and the fraction remaining at 24 h, 1 mmol/l came to 0%.
